Measurements: paper PMC11674800, “Second-Generation Antipsychotics Induce Metabolic Disruption in Adipose Tissue-Derived Mesenchymal Stem Cells Through an aPKC-Dependent Pathway” (Cells, 2024)

Legend:
INSRβ signaling in ADSCs = experiment: Insulin signaling Western blot / INSRβ immunoprecipitation; type: cell-based, human; settings: 5 μM, 16 h
Protocol: (§1) After treatments, whole-cell lysates were prepared using RIPA lysis buffer supplemented with protease inhibitors (AEBSF, aprotinin, bestatin, E-64, EDTA, leupeptin, Sigma-Aldrich, Saint Louis, MO, USA) and orthovanadate (Sigma-Aldrich, Saint Louis, MO, USA). The proteins in the lysates were collected and quantified using the Pierce BCA protein assay kit (Thermo Fisher Scientific, Waltham, MA, USA). Subsequently, the proteins were denatured by heating at 95 °C for 5 min in the presence of 2% Sodium Dodecyl Sulfate (SDS, Sigma-Aldrich, Saint Louis, MO, USA), 150 mM dithiothreitol (DTT, Sigma-Aldrich, Saint Louis, MO, USA), and 0.01% bromophenol blue (Sigma-Aldrich, Saint Louis, MO, USA). The samples were then analyzed using SDS-PAGE (SDS-Polyacrylamide Gel Electrophoresis) and Western blotting (WB).
Following treatment, the cells were stimulated with insulin at 50 ng/mL for 15 min. For the immunoprecipitation of the insulin receptor beta subunit (INSRβ), cell lysates were prepared using RIPA lysis buffer with protease inhibitors, as described previously. The lysates were then incubated for 1 h with magnetic beads (Dynabeads Protein G, Thermo Fisher Scientific, Waltham, MA, USA) that had been previously bound to anti-INSRβ antibody, following the manufacturer’s instructions. After incubation, the beads were washed three times with RIPA buffer to remove non-specifically bound proteins. The immunoprecipitated proteins bound to the beads were then eluted by boiling the beads at 95 °C for 5 min in the presence of 2% SDS, 150 mM DTT, and 0.01% bromophenol blue. The eluted proteins were analyzed using SDS-PAGE and, subsequently, using WB.

INSRβ = INSRβ endocytosis assay and immunofluorescence localization; type: cell-based, human; settings: 5 μM, 16 h; 15 min insulin stimulation
Protocol: ADSCs were seeded at a density of 100,000 cells/well in a 6-well plate. The protocol was carried out as described in Barrow-McGee et al., 2015 [33]. Cell surface proteins were labeled by incubating the cells with 0.2 mg/mL sulpho-NHS-SS-biotin (Sigma-Aldrich, Saint Louis, MO, USA) in PBS for 45 min on ice. Labeled cells were then washed with cold PBS and incubated at 37 °C in a culture medium containing insulin at 50 ng/mL to allow for INSR trafficking. At the indicated times, the medium was removed and the dishes were transferred to ice and washed with cold PBS. Biotin was removed from the proteins that remained at the cell surface via reduction for 15 min with 180 mM of the membrane-impermeant reducing agent MesNa (sodium 2 mercaptoethane sulphonate, Sigma-Aldrich, Saint Louis, MO, USA) in 50 mM Tris and 100 mM NaCl at pH 8.6. MesNa was quenched by adding 180 mM iodoacetamide (IAA, Sigma-Aldrich, Saint Louis, MO, USA) for 10 min. The cells were lysed using RIPA buffer as previously described. The proteins were quantified using BCA; equal protein amounts received streptavidin–agarose beads (Sigma-Aldrich, Saint Louis, MO, USA) and were agitated at 4 °C for 2 h. Then, the beads were collected via centrifugation (7000× g) and washed in lysis buffer, and the proteins were extracted by heating at 95 °C with sample buffer. In each internalization assay, two controls were carried out. To measure INSRβ at the surface, biotinylated cells at 4 °C were lysed without biotin reduction (Ts). To verify the efficiency of the surface biotin removal, the biotin reduction and MesNa-quenching steps were carried out on cells that had remained on ice (T0). Then, lysis was carried out. All lysates were analyzed via Western blot.
The percentages of internalized INSR were calculated using the following formula: internalized receptor = (receptor level after incubation at 37 °C) − (receptor level at time 0)/(total surface receptor) × 100. All samples were normalized on the input INSR signal.
For INSRβ endocytosis experiments, the cells were stimulated with 50 ng/mL insulin for 15 min. For transferrin endocytosis experiments, the cells were incubated with 25 μg/mL Transferrin Texas Red for 5 min. After treatment, the cells were washed with PBS and fixed with 4% PFA for 10 min at room temperature, followed by an additional PBS wash. The cells were then permeabilized by incubating them with cold HEPES-Triton X-100 buffer for 5 min at 4 °C. […] Images were acquired using a confocal microscope (Leica TCS SP8, Wetzlar, Germany) and analyzed using ImageJ (v 1.52a) software in order to quantify and analyze the fluorescence signals.

ADSCs [1] = experiment: Vacuolization assay; type: cell-based, human; settings: 5 μM, 4 h
Protocol: After 4 h, pictures were acquired using a phase contrast microscope (DMi1, Leica, Wetzlar, Germany).

TFEB = TFEB nuclear localization (confocal microscopy); type: cell-based, human; settings: 5 μM, 16 h; compared to untreated cells
Protocol: For INSRβ endocytosis experiments, the cells were stimulated with 50 ng/mL insulin for 15 min. For transferrin endocytosis experiments, the cells were incubated with 25 μg/mL Transferrin Texas Red for 5 min. After treatment, the cells were washed with PBS and fixed with 4% PFA for 10 min at room temperature, followed by an additional PBS wash. The cells were then permeabilized by incubating them with cold HEPES-Triton X-100 buffer for 5 min at 4 °C. After permeabilization, the cells were incubated with primary antibodies for 30 min, followed by incubation with Alexa Fluor 488- or 546-conjugated secondary antibodies (Invitrogen, Waltham, MA, USA) and phalloidin, labeled with either Alexa Fluor 546 or 633 (Invitrogen Waltham, MA, USA) for 30 min. After incubation, coverslips were mounted on glass slides using a mounting medium. Images were acquired using a confocal microscope (Leica TCS SP8, Wetzlar, Germany) and analyzed using ImageJ (v 1.52a) software in order to quantify and analyze the fluorescence signals.

3T3L1 cells = experiment: PA accumulation in cells transfected with DOCK2-Pii; type: cell-based, mouse; settings: 5 μM, 16 h; compared to untreated controls
Protocol: Transfection was carried out using Lipofectamine 3000 (Thermo Fisher Scientific, Waltham, MA, USA), following the manufacturer’s instructions. The cells were incubated with the plasmid for 24 h to ensure successful transfection and plasmid expression and were used for experiments 48 h post-transfection.

cathepsin B = experiment: Cathepsin B Western blot; type: cell-based, human; settings: 5 μM, 16 h
Protocol: as §1

ADSCs [2] = experiment: Adipogenic differentiation, lipid droplet staining (HCS LipidTox); type: cell-based, human; settings: 5 µM; after three weeks of differentiation
Protocol: ADSCs were plated at a density of 70,000 cells/well in a 12-well plate using DMEM with 10% FBS. When the cells reached about 90% confluence, the culture medium was removed and substituted with WAT-differentiating medium containing DMEM 10% FBS, insulin (1 μM), dexamethasone (DEXA, 1 μM), IBMX (0.5 mM), and rosiglitazone ([…]). After 3 days of exposure to the differentiating medium, the cells were cultured in a maintenance medium containing only insulin (1 μM) and rosiglitazone (1 μM) for 14 days. The medium was changed every 3 days. The differentiation results were evaluated by staining the cells with HCS LipidTOX™ for neutral lipids (Thermo Fisher Scientific, Waltham, MA, USA) after 21 days. The cells were fixed using 4% paraformaldehyde (PFA, Sigma-Aldrich, SaintLouis, MO, USA) for 15 min at room temperature; then, each well was stained using HCS LipidTox and Hoechst 33342 and incubated at room temperature for 30 min. After this incubation, the cells were washed with water. Images were acquired using fluorescence microscopy (FLoid Cell Imaging Station, Life Technology, Carlsbad, CA, USA) or light microscopy (DMi1, Leica, Wetzlar, Germany) and analyzed using ImageJ software (v 1.52a).

## Cc1cc2c(s1)Nc1ccccc1N=C2N1CCN(C)CC1 [olanzapine]
INSRβ signaling in ADSCs; basal and after insulin stimulation
  phosphorylated INSRβ serine residues: increased levels
INSRβ signaling in ADSCs; insulin 50 ng/mL
  INSRβ tyrosine phosphorylation (P-INSRβ Y1146): reduction
  P-AKT T308, P-AKT S473, and P-ERK T202/Y204: decrease
INSRβ
  INSRβ colocalization in LAMP1-positive lysosomes: unaffected
  INSRβ internalization: significant reduction
  INSRβ localization in CD63-positive recycling endosomes: reduced
  localization of INSRβ in RAB7-positive late endosomes: significantly increased localization
ADSCs [1]
  vacuolization induction: absent
TFEB
  increase in TFEB nuclear localization: 50%
3T3L1 cells
  PA accumulation: significant accumulation
Cathepsin B
  levels of cathepsin B: elevated levels
ADSCs [2]
  quantity and average size of lipid droplets: notably decreased
  reduction in lipid accumulation: approximately 30%
